Measured values from publication PMC5546478 (Oncotarget, 2017).
“Also recorded” adds a separate entry of the source. Counter-ions that a name gives are not always drawn. Like-named read-outs stand apart in the source and are kept apart here.

Tests used:
[1] = system: mutant IDH1; details: cited from earlier work
[2] = target: T1, WT IDH1 (Homo sapiens, UniProt O75874); test: In vitro enzyme inhibition assay, WT IDH1 (NADPH production); type: biochemical; details: for IC50 / IC50 for enzyme activities, WT: n.p = no clear inhibitory detected; for IC50: read-out: IC50 for enzyme activities, WT
T1 construct: made in house
T1 sequence (O75874 whole entry): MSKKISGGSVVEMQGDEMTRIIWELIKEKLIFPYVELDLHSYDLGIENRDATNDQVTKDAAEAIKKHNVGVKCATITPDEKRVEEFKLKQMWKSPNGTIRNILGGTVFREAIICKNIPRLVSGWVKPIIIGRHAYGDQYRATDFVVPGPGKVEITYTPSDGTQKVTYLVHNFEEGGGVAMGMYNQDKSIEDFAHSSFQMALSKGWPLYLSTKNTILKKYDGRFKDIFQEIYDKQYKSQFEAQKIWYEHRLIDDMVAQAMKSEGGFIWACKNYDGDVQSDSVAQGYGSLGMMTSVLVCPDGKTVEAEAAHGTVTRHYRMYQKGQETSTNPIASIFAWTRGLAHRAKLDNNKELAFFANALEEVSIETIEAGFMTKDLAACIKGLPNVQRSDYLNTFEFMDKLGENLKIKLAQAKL
Description: For inhibition assay, firstly, triplicate samples of compounds were incubated with the protein for 5 min.

[3] = system: HT1080 cells; test: Flow cytometric analysis for apoptosis (Annexin V/PI); type: cell-based, human; details: control 2%
Description: Then the cells were harvested, washed twice with ice-cold PBS, and mixed in 100 μL of 1 × binding buffer (10 mM HEPES/NaOH, pH 7.4, 140 mM NaCl, 2.5 mM CaCl2). After culturing for 15 min at room temperature in Annexin-V/PI (Nanjing KeyGen Biotech. Inc.) double staining liquid, the cells were examined by flow cytometry (BD Biosciences, FACSCalibur).

[4] = system: H3K9me3 in HT1080 cells; test: Histone methylation H3K9me3 by western blot; type: cell-based, human; details: 48 hours
Description: The harvested cells were lysed with lysis buffer (50 mM Tris-HCl (pH 7.4), 150 mM NaCl, 1 mM EDTA, 1 mM EGTA, 10 mg/mL aprotinin, 10 mg/mL leupeptin, 5 mM phenylmethanesulfonyluoride (PMSF), 1 mM dithiolthreitol (DTT) containing 1% Triton X-100). Insoluble debris was removed by centrifugation at 13000 rpm for 20 minutes, and the content of protein was determined using Bradford reagent (Bio-Rad, USA). Lysate protein (20-40 μg) was subjected to 12% SDS-PAGE and electrophoretically transferred to polyvinylidene difluoride membranes (PVDF) (Millipore, USA). The membranes were blocked with 5% non-fat milk for 1 h and then incubated with the respective specific primary antibody at 4 °C overnight. Protein bands were visualized using an enhanced chemiluminescence reagent (ECL Plus) (GE Healthcare, USA) after hybridization with a HRP conjugated secondary antibody. Band density was quantified using the Image J software program (NIH).

[5] = system: H3K9me3 in HT1080 cells; test: Immunocytochemical staining of H3K9me3; type: cell-based, human
Description: We seeded the cells at 2×10^5 per well (Lab-Tek II chamber slide, Nalgen Nunc International, Naperville, IL). 48 hours after incubation, cells were fixed with PBS (−) containing 4% paraformaldehyde for 15 minutes, and rendered permeable with PBS (−) containing 0.1% Triton X-100 at 4 °C for 2.5 minutes. Subsequently, the cells were covered with 3% bovine serum albumin in PBS (−) at 4 °C for 12 hours to block nonspecific hybridization followed by incubation with an H3K9me3 antibody diluted at 1:100. After washing with PBS (−), the cells were stained by an Alexa 594-conjugated anti-mouse secondary antibody (Molecular Probes, Eugene, OR) diluted at 1: 1,000. Nuclei were counterstained with (DAPI). Fluorescent images were obtained under a TCS SP2 AOBS microscope (Leica, Tokyo, Japan).

[6] = system: HT1080 xenograft; test: Antitumor efficacy in HT1080 xenograft mouse model; type: in vivo, CB-17/Icr-scid mice; details: for Tumor weight: after 2 weeks' treatment, control 2.32 ± 0.93 g; for Tumor volume: model 1879.61±244.35
Description: In the xenograft model, HT1080 cells were inoculated subcutaneously into the right flank of male CB-17/Icr-scid mice.

[7] = system: mutant IDH1 (D-2HG production); test: D-2HG concentrations in tumors and serum of HT1080 xenograft mice; type: in vivo, CB-17/Icr-scid mice; details: for percentage inhibition of D-2HG production in tumor tissue: normalized to control group; for R-2HG level in serum: model 5.97 ±2.58; for R-2HG level in tumor tissue: model 364.01 ±118.43
[8] = system: H3K9me3 in HT1080 tumor tissue; test: Immunohistochemistry for H3K9me3 in xenograft tumor tissues; type: in vivo, CB-17/Icr-scid mice; details: clomifene treated groups (50, 100 mg/kg) vs vehicle
Description: We then examined D-2HG concentrations in tumors and serum.
HT1080 cells were inoculated subcutaneously (2 × 10^6 cells) into the right flank of each mouse in the three groups. Treatment was started after seven days of cells injection. […] For the vehicle group, 200 μL normal saline was administered to each mouse every day by i.g. The duration of the animal study was 22 days for HT1080 cells. The tumor volume was calculated from measurements of 3 diameters of the individual tumor based on the following formula: tumor volume (mm^3) = (length × width × height × 0.52). The mice were monitored until tumors reached 1 cm^3 total volume, at which time the mice were euthanized and the tumors were extracted. The tumors were dissected and sent for immunohistochemical analysis and western blot analysis.

[9] = 50 and 100 mg/kg per day via gavage
Description: After 2 weeks’ treatment, all mice were then scarified and the average tumor weights were calculated.
CB-17/Icr-scid mice (male, 4 weeks old) were purchased from HFK Bioscience CO., LTD (Beijing, China). The animals were maintained under ‘specific pathogen-free’ conditions according to the guidelines established by Research Animal Resources, Laboratory Animal Center, Huazhong University of Science and Technology (Wuhan, China). […] HT1080 cells were inoculated subcutaneously (2 × 10^6 cells) into the right flank of each mouse in the three groups. Treatment was started after seven days of cells injection. […] For the vehicle group, 200 μL normal saline was administered to each mouse every day by i.g. The duration of the animal study was 22 days for HT1080 cells. The tumor volume was calculated from measurements of 3 diameters of the individual tumor based on the following formula: tumor volume (mm^3) = (length × width × height × 0.52). The mice were monitored until tumors reached 1 cm^3 total volume, at which time the mice were euthanized and the tumors were extracted.

For `CC(C)(C)CC(C)(C)c1cc(Cn2ccnc2)c(O)c(Cn2ccnc2)c1` [2,6-bis (1H-imidazol-1-ylmethyl)-4-(2,4,4-trimethylpentan-2-yl) phenol], the “manner of inhibition of mutant IDH1” value ([1]; ligand of crystal structure 4UMX, binds allosteric site) is given as “non-competitive and allosteric inhibitor”.
For `Cc1ccccc1C(C(=O)NC1CCCCC1)N(C(=O)Cn1ccnc1C)c1cccc(F)c1` (centres unmarked) [AGI-5198], the IC50 [2] is listed as greater than 200 µM, the “kinetic mechanism with respect to NADPH” value ([1]; mutant IDH1) is listed as “uncompetitive” and the “kinetic mechanism with respect to α-KG” value ([1]; mutant IDH1) is listed as “competitive inhibitor”.
In the case of `COc1ccc(-c2ccc3cc(C(=O)O)ccc3c2)cc1C12CC3CC(CC(C3)C1)C2` [Adapalene], the “IC50 for enzyme activities, WT” value [2] is reported as “n.p”.
Compound `CO[C@@]1(NC(=O)Cc2cccs2)C(=O)N2C(C(=O)O)=C(COC(N)=O)CS[C@@H]21` [Cefoxitin sodium] has an IC50 [2] greater than 200 µM.
For `CCN(CC)CCOc1ccc(C(=C(Cl)c2ccccc2)c2ccccc2)cc1` [Clomifene], the “Effect on WT IDH1” value ([2]; at 200 μM) was “did not obviously alter”, the IC50 [2] was greater than 200 µM and the apoptotic death ([3]; 10 μM) was 12.88%. The apoptotic death ([3]; 20 μM) was 23.61%, the “level of histone methylation (H3K9me3)” value [4] was “significantly reduced; also recorded: markedly decrease” and the “mutant IDH1-mediated H3K9me3” value [5] was “substantially and dose-dependently decreased”. For the same compound, the “percentage inhibition of tumor volume” value ([6]; 50 mg/kg per day via gavage) was 51.71%, the “percentage inhibition of tumor weight” value ([6]; 50 mg/kg per day via gavage) was 38.36% and the Tumor weight ([6]; 50 mg/kg per day via gavage) was 1.43 ± 0.42 g. For the same compound, the “percentage inhibition of tumor weight” value ([6]; 50 mg/kg per day via gavage, listed as clomifene) was “about 60%”, the Tumor volume ([6]; 50 mg/kg per day via gavage) was 907.73±176.63 mm3 and the “percentage inhibition of tumor volume” value ([6]; 100 mg/kg per day via gavage) was 65.80%. For the same compound, the “percentage inhibition of tumor weight” value ([6]; 100 mg/kg per day via gavage) was 59.48%, the Tumor weight ([6]; 100 mg/kg per day via gavage) was 0.94 ± 0.61 g and the Tumor volume ([6]; 100 mg/kg per day via gavage) was 642.91±127.02 mm3. The “tumor growth of HT1080-bearing mice” value ([6]; oral 100 mg/kg and 50 mg/kg per day) was “significantly suppressed”, the “percentage inhibition of R-2HG in serum” value ([7]; 50 mg/kg) was 51.59% and the “percentage inhibition of D-2HG production in tumor tissue” value ([7]; 50 mg/kg) was 23.81%. For the same compound, the “R-2HG level in serum” value ([7]; 50 mg/kg) was 2.89 ± 1.06 µM, the “R-2HG level in tumor tissue” value ([7]; 50 mg/kg) was 277.34 ± 78.03 µg/g and the “percentage inhibition of D-2HG production in tumor tissue” value ([7]; 100 mg/kg) was 57.38%. The “R-2HG level in serum” value ([7]; 100 mg/kg) was 1.47 ± 1.38 µM, the “R-2HG level in tumor tissue” value ([7]; 100 mg/kg) was 155.12 ± 74.34 µg/g and the “expressions of H3K9me3 in tumor tissues” value [8] was “substantially reduced”. The “effect on mouse body weight” value [9] was “no effect” and the “effect on mouse body weight” value ([9]; listed as clomifene) was “no obvious side effects on animals’ growth”.
In the case of `CN(C)[C@@H]1C(O)=C(C(N)=O)C(=O)[C@@]2(O)C(O)=C3C(=O)c4c(O)ccc(Cl)c4[C@@H](O)[C@H]3C[C@@H]12` [Demeclocycline], the “IC50 for enzyme activities, WT” value [2] is reported as “n.p^e”.
For `OC(Cn1cncn1)(Cn1cncn1)c1ccc(F)cc1F` [Fluconazole], the “IC50 for enzyme activities, WT” value [2] was “n.p”.
For `C=C1c2cccc(O)c2C(=O)C2=C(O)[C@]3(O)C(=O)C(C(N)=O)=C(O)[C@@H](N(C)C)[C@@H]3[C@@H](O)[C@H]12` [Metacycline], the “IC50 for enzyme activities, WT” value [2] was “n.p”.
For `CCCNCC(O)COc1ccccc1C(=O)CCc1ccccc1` (centres unmarked) [Propafenone Hydrochloride], the “IC50 for enzyme activities, WT” value [2] was “n.p”.
In the case of `O=C(NC[C@H]1CN(c2ccc(N3CCOCC3=O)cc2)C(=O)O1)c1ccc(Cl)s1` [Rivaroxaban], the IC50 [2] is reported as greater than 200 µM.
With `CN(C)c1cc(NC(=O)CNC(C)(C)C)c(O)c2c1C[C@H]1C[C@H]3[C@H](N(C)C)C(O)=C(C(N)=O)C(=O)[C@@]3(O)C(O)=C1C2=O` [Tigecycline] the “IC50 for enzyme activities, WT” value [2] was “n.p”.
